Laboratory results published in patent US12691234B2, “Methods employing gaseous nitric oxide for inhibiting tumor growth” (Beyond Air, Inc., priority 2019, dated 2026).

Columns and labels:
CT-26 tumor = experiment: Local gNO administration to CT26 tumor-bearing mice, primary tumor; format: in vivo, Balb/c mouse
Description: Test article treatment: Mice were first anesthetized by an intraperitoneal (i.p) injection of 100 mg/kg ketamine and 20 mg/kg xylazine hydrochloride solution. After 10 minutes, tumor-bearing mice were treated with the indicated dose of gNO.
In all protocols, the gas was delivered from NO in N2 cylinders. The outlet pressure was set to 2-3.5 bar using a pressure regulator that was connected directly to the cylinder.
In protocols that involve administration by needle injection, a silicone hose was connected directly to the pressure regulator on one end and to a manual or digital MFC on the other end. The flow was adjusted to 0.05 LPM-0.25 LPM. An additional silicone hose was connected to the flow controller as well as to a 23 G hypodermic needle. The needle was inserted horizontally into the center of each tumor.
Mice were inoculated subcutaneously with 5×10^5 CT-26 cells suspended in 100 μL Hank's Balanced Salt Solution (HBSS) into the low lateral side of the back. Local tumor growth was determined by measuring two mutually orthogonal tumor diameters with a caliper. The volume of the tumor was calculated using the formula: Vol=D1×D2×D2/2, where D1, D2 are two mutually orthogonal tumor diameters.
Air-1 is a female Balb/c mouse that was treated twice. On day 0 the tumor volume was 64.85 mm^3. […] This was followed by air administration for 4 minutes administered to the outer layer of the tumorusing a cap, such as shown in FIG. 11C.
NO-1 is a female Balb/c mouse and was treated once. […] Then, the skin was removed from the tumor, and the tumor was re-exposed to gNO via a perforated flask filled with gNO using the same parameters.
NO-2 is a male Balb/c mouse and was treated 3 times. On day 0 the tumor volume was 38.51 mm^3. Day 0—gNO at 50,000 ppm was administered for 3.8 minutes at a flow rate of 0.9 using a cap. Day 5: gNO at 10,000 ppm was administered for 30 minutes using a cap. Then, gNO was delivered intra-tumorally by a 23 G needle such as shown in FIG. 11B at 0.3 LPM for another 10 minutes, using an intra-tumoral channel. The tip of the needle was directed at the outside area. Day 11: gNO at 10,000 ppm was delivered to the tumor for 5 minutes and at a flow rate of 0.3 LPM, using a 23 G needle and an intra-tumoral channel.
In an additional set of experiments, aluminum disposable gas cylinders were used. A flow meter was connected directly to the cylinder, to which a gas delivery tubing was connected. The tumor was inserted into a small flask trough a 1 cm hole and a plastic holder. A small hole at the bottom of the flask enabled to lower the pressure inside the flask. […]

CT26 challenge tumor = experiment: Challenge assay in CT26 tumor-bearing mice; format: in vivo, mouse
Description: Challenge tumor inoculation: Up to 21 days after gas treatment was applied to the primary tumor, the appropriate cancer cell suspensions were prepared as described herein and inoculation of cells was repeated on the contralateral flank of the mice. Administration was performed as soon as possible following cell suspension preparation and after manual shaking prior to withdrawal of the cell suspension.
The percentage of challenge tumor take was monitored 2-3 times a week by taking a look at the inoculated site and touching this area to look for small tumors that are not yet visible. Naïve mice inoculated with tumor cells for the first time served as an internal control.
Mixing of cells was performed immediately before injection to minimize leukocyte interactions within the syringe. Mice were observed 2-3 times a week and tumor development was determined by caliper measurements of tumor dimensions as described herein. Splenocytes were extracted from a CT26 tumor-bearing mouse, which was previously treated with 25,000 ppm NO for two 15-minute courses. This mouse was re-inoculated with CT26 cancer cells 12 days post treatment. […] Tumor take of visible outgrowths was monitored 2 to 3 times per week by taking a look at the inoculated site and touching this area to look for small tumors that are not yet visible Naïve mice inoculated s.c. with 500,000 CT26 served as the control group. […]

4T1 cells = experiment: Third inoculation with 4T1 breast cancer cells in CT26 gNO-immunized mouse; format: in vivo, Balb/c mouse; settings: mouse treated with 25,000 ppm NO twice 15 minutes; 4T1 inoculated 30 days post second inoculation
Description: Balb/c mouse was inoculated with 500,000 CT26 cells to the right flank. CT26 tumor was treated with 25,000 ppm NO for 15 minutes at a flow rate of 0.25 LPM. Seven days post gas treatment, this mouse was treated once again using the same protocol. Twelve days post the first NO treatment, this mouse was re-inoculated with 500,000 CT26 cells to the left flank. A third inoculation of cancer cells was performed 30 days post the second cell inoculation, using mouse breast cancer cells, was performed as well and the growth of a third inoculation of breast cancer cells, 4T1 cells. Forty-four days post challenge assay start (second inoculation), this mouse was sacrificed, and his spleen was harvested and preserved in RPMI-based media at 4° c. until processing of it. The spleen was processed into a sterile 35 mm culture dish containing 5 ml of RPMI-based media. Any extra connective tissues or fat was trimmed from the spleen. The flat end of a plunger was used to mince the spleen by crushing the spleen to release the splenocytes. A 70 μm strainer was primed by passing 1 ml of PBS through it and placed on a sterile 50 mL conical tube. The pellet was collected and transferred through the strainer via a 5 mL serological pipette. The strainer was washed with 3 mL of RPMI-based media. Tube will be centrifuged at 300×g for 10 minutes. […]

[N]=O [gNO, nitric oxide]
tumor in photographs after treatment (CT-26 tumor; 10,000 ppm gNO in flask, 0.9 LPM, 20 minutes, up to 14 days post treatment): the tumor was destructed | mice cured (CT-26 tumor; 25,000 ppm gNO intra-tumoral, 15 minutes, 0.25 LPM, repeated a week later, 44 days post the first treatment): 50% | tumor 9 days after treatment (CT-26 tumor; 200,000 ppm gNO for 2 seconds, 0.01 LPM): the tumor disappeared | size of air-treated tumor relative to gNO-treated tumors (CT-26 tumor; mice NO-1 and NO-2, 10,000-50,000 ppm gNO, 12 days post treatment 1): more than times bigger | rejection of secondary CT26 tumor cell inoculation (CT26 challenge tumor; 25,000 ppm 30 minutes, 50,000 ppm 10 minutes or 200,000 ppm 2-35 seconds, end of follow-up): all NO-treated mice rejected a secondary CT26 tumor cell inoculation | tumor development after CT26 re-inoculation (CT26 challenge tumor; 25,000 ppm NO two 15-minute courses, re-inoculated 12 days post treatment, 44 days after challenge): no signs of tumor development were detected | growth of a third inoculation of breast cancer cells (4T1 cells): inhibited
